Results taken from paper PMC9653166 (Journal of medicinal chemistry, 2022).
“And” between values parts separate entries of the source, which are not always exact repeats. Identical values can stand only once. “Also recorded” adds a separate entry of the source.

Tests used:
Sirt5 = target: T1, Sirt5 (Homo sapiens, UniProt Q9NXA8); test: Coupled enzymatic desuccinylation assay, Sirt5 with CPS1-succK537 peptide; type: biochemical; details: for Effect on Sirt5 activity (in words): coupled assay, 10 and 100 μM compound
T1 sequence (Q9NXA8 34-302): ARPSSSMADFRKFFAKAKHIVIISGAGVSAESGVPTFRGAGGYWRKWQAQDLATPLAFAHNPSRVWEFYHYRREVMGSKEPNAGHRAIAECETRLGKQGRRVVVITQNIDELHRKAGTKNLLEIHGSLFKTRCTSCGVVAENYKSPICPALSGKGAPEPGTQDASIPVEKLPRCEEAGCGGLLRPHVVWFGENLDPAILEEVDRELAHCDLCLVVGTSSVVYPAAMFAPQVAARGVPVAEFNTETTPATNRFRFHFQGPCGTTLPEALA

Sirt3 = target: T2, Sirt3 (Homo sapiens, UniProt Q9NTG7); test: Coupled enzymatic deacetylation assay, Sirt3 with ACS2-acK642 peptide; type: biochemical; details: coupled assay, ACS2 peptide, 10 and 100 μM compound
T2 sequence (Q9NTG7 114-380): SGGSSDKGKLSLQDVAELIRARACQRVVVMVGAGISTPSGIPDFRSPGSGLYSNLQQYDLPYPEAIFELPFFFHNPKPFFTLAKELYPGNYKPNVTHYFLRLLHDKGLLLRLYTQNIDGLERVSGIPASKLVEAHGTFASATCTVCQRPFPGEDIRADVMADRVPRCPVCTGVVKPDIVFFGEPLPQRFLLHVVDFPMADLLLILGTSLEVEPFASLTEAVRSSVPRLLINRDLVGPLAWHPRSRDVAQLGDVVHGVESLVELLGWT

SMILES	Sirt5 activation (CPS1-succK537 desuccinylation) (Sirt5; 10 μM compound)	Sirt5 activation (CPS1-succK537 desuccinylation) (Sirt5; 100 μM compound)	Effect on Sirt3 activity (in words) (Sirt3)	Effect on Sirt5 activity (in words) (Sirt5)
CCOC(=O)C1=CN(Cc2ccccc2)C=C(C(=O)OCC)C1c1nccs1 [Compound 7]			Sirt3 activation; also recorded: comparable to the parent compound	
CCOC(=O)C1=CN(Cc2ccccc2)C=C(C(=O)OCC)C1c1cccc2ccccc12 [Compound 3]				Sirt5 activation
CCOC(=O)C1=CN(C(=O)c2ccccc2)C=C(C(=O)OCC)C1c1ccc(Cl)cc1 [Compound 14]	1.2- to 1.5 fold			
CCOC(=O)C1=CN(Cc2ccccc2)C=C(C(=O)OCC)C1c1ccc(-c2ccccc2)cc1 [Compound 2]				Sirt5 activation
CCOC(=O)C1=CN(C(=O)c2cccc3ccccc23)C=C(C(=O)OCC)C1c1ccccc1 [Compound 21]		2- to 3 fold		specific Sirt5 activation
CCOC(=O)C1=CN(C(=O)c2ccccc2)C=C(C(=O)OCC)C1c1ccccc1OC [Compound 18]				specific Sirt5 activation
CCOC(=O)C1=CN(C(=O)c2ccccc2)C=C(C(=O)OCC)C1c1ccc(C)cc1 [Compound 17]				specific Sirt5 activation
CCOC(=O)C1=CN(Cc2ccccc2)C=C(C(=O)OCC)C1c1ccc2ccccc2c1 [Compound 4]	1.2- to 1.5 fold			Sirt5 activation
CCOC(=O)C1=CN(C(=O)c2ccccc2)C=C(C(=O)OCC)C1c1ccc(OC)cc1 [Compound 20]	1.2- to 1.5 fold			
CCOC(=O)C1=CN(Cc2ccccc2)C=C(C(=O)OCC)C1c1cc2ccccc2s1 [Compound 9]		2- to 3 fold		Sirt5 activation

Continued, values first:

Sirt5 activation (CPS1-succK537 desuccinylation) (Sirt5; 10 μM compound)	Sirt5 activation (CPS1-succK537 desuccinylation) (Sirt5; 100 μM compound)	Effect on Sirt3 activity (in words) (Sirt3)	Effect on Sirt5 activity (in words) (Sirt5)	SMILES
1.2- to 1.5 fold	2- to 3 fold and 2.5 fold	comparable to the parent compound		CCOC(=O)C1=CN(C(=O)c2cnc3ccccc3n2)C=C(C(=O)OCC)C1c1ccccc1 [Compound 24]
	about 2 fold			CCOC(=O)C1=CN(C(=O)c2ccccc2)C=C(C(=O)OCC)C1c1ccco1 [Compound 27, Diethyl 1-Benzoyl-4-(furan-2-yl)-1,4-dihydropyridine-3,5-dicarboxylate]
		lost their effects towards Sirt3		CCOC(=O)C1=CN(Cc2cc(OC)c(OC)c(OC)c2)C=C(C(=O)OCC)C1c1ccccc1 [Compound 25, Diethyl 4-Phenyl-1-(3,4,5-trimethoxybenzyl)-1,4-dihydropyridine-3,5-dicarboxylate]
1.2- to 1.5 fold	2- to 3 fold		specific Sirt5 activation	CCOC(=O)C1=CN(C(=O)c2cnccn2)C=C(C(=O)OCC)C1c1ccccc1 [Compound 23]
		lost their effects towards Sirt3		CCOC(=O)C1=CN(Cc2cc(OC)c(OC)c(OC)c2)C=C(C(=O)OCC)C1c1cnc2ccccc2c1 [Compound 26, Diethyl 4-(Quinolin-3-yl)-1-(3,4,5-trimethoxybenzyl)-1,4-dihydropyridine-3,5-dicarboxylate]
	3- to 3.5 fold			CCOC(=O)C1=CN(C(=O)c2ccccc2)C=C(C(=O)OCC)C1c1ccoc1 [Compound 28, Diethyl 1-Benzoyl-4-(furan-3-yl)-1,4-dihydropyridine-3,5-dicarboxylate]
